Assay results taken from the CheMixHub viscosity set.
Values joined by “and” are separate entries in the source; they are usually repeats but may differ in a detail not shown here. Identical values can stand only once.

Assay: xn = mol fraction of the nth substance listed

CC(C)CC(C)C + CCCCCCCCCCCC
101 kPa, x1 = 0.5
Conditions | viscosity [mPa·s]
298 K | 0.7489
318 K | 0.5809

CC(C)c1cc(C(C)C)cc(C(C)C)c1 + CCCCCCCCCCCC
viscosity [mPa·s], 102 kPa
Conditions | x1 = 0.0997 | x1 = 0.2002 | x1 = 0.3009 | x1 = 0.4002 | x1 = 0.5003 | x1 = 0.6001 | x1 = 0.7001 | x1 = 0.8002 | x1 = 0.8999
293.15 K | 1.57 | 1.67 | 1.8 | 1.94 | 2.14 | 2.37 | 2.67 | 3.05 | 3.51
303.15 K | 1.31 | 1.39 | 1.48 | 1.59 | 1.73 | 1.89 | 2.09 | 2.35 | 2.66
313.15 K | 1.11 | 1.17 | 1.24 | 1.32 | 1.42 | 1.54 | 1.69 | 1.86 | 2.08
323.15 K | 0.956 | 1 | 1.05 | 1.12 | 1.19 | 1.28 | 1.39 | 1.52 | 1.67

CCOC(=O)CCl + CCCCCCCCCCCC
viscosity [mPa·s], 101.33 kPa
Conditions | x1 = 0.0961 | x1 = 0.2041 | x1 = 0.3012 | x1 = 0.4005 | x1 = 0.5029 | x1 = 0.6026 | x1 = 0.7029 | x1 = 0.804 | x1 = 0.9017
298.15 K | 1.25 | 1.197 | 1.159 | 1.14 | 1.127 | 1.116 | 1.105 | 1.101 | 1.099
303.15 K | 1.149 | 1.094 | 1.062 | 1.041 | 1.027 | 1.029 | 1.015 | 0.994 | 0.985
308.15 K | 1.054 | 1.019 | 0.979 | 0.96 | 0.946 | 0.94 | 0.93 | 0.927 | 0.929

COC(=O)c1ccccc1 + CCCCCCCCCCCC
101 kPa
Conditions | viscosity [mPa·s]
298.15 K, x2 = 0.082 | 1.662
298.15 K, x2 = 0.1173 | 1.604
298.15 K, x2 = 0.144 | 1.569
298.15 K, x2 = 0.1894 | 1.521
298.15 K, x2 = 0.2155 | 1.489
298.15 K, x2 = 0.2495 | 1.456
298.15 K, x2 = 0.2908 | 1.424
298.15 K, x2 = 0.3295 | 1.395
298.15 K, x2 = 0.3708 | 1.367
298.15 K, x2 = 0.4625 | 1.325
298.15 K, x2 = 0.5803 | 1.295
298.15 K, x2 = 0.6336 | 1.286
298.15 K, x2 = 0.6963 | 1.278
298.15 K, x2 = 0.7551 | 1.279
298.15 K, x2 = 0.837 | 1.291
298.15 K, x2 = 0.9197 | 1.314
308.15 K, x2 = 0.0354 | 1.452
308.15 K, x2 = 0.0681 | 1.412
308.15 K, x2 = 0.0984 | 1.376
308.15 K, x2 = 0.126 | 1.347
308.15 K, x2 = 0.1623 | 1.311
308.15 K, x2 = 0.1958 | 1.282
308.15 K, x2 = 0.2384 | 1.248
308.15 K, x2 = 0.2693 | 1.226
308.15 K, x2 = 0.3062 | 1.203
308.15 K, x2 = 0.3476 | 1.182
308.15 K, x2 = 0.3895 | 1.164
308.15 K, x2 = 0.4361 | 1.146
308.15 K, x2 = 0.485 | 1.131
308.15 K, x2 = 0.5382 | 1.12
308.15 K, x2 = 0.5886 | 1.112
308.15 K, x2 = 0.65 | 1.108
308.15 K, x2 = 0.7204 | 1.107
308.15 K, x2 = 0.7849 | 1.11
308.15 K, x2 = 0.8845 | 1.124
318.15 K, x2 = 0.0445 | 1.219
318.15 K, x2 = 0.0506 | 1.213
318.15 K, x2 = 0.0779 | 1.183
318.15 K, x2 = 0.1097 | 1.152
318.15 K, x2 = 0.1388 | 1.126
318.15 K, x2 = 0.1737 | 1.097
318.15 K, x2 = 0.2067 | 1.072
318.15 K, x2 = 0.2449 | 1.048
318.15 K, x2 = 0.2814 | 1.025
318.15 K, x2 = 0.3256 | 1.001
318.15 K, x2 = 0.3648 | 0.983
318.15 K, x2 = 0.4153 | 0.964
318.15 K, x2 = 0.4635 | 0.95
318.15 K, x2 = 0.5194 | 0.938
318.15 K, x2 = 0.5726 | 0.931
318.15 K, x2 = 0.6372 | 0.926
318.15 K, x2 = 0.7 | 0.924
318.15 K, x2 = 0.7739 | 0.929
318.15 K, x2 = 0.8468 | 0.938

c1ccc2c(c1)CCCC2 + CCCCCCCCCCCC
323.15 K, 100 kPa
Conditions | viscosity
x1 = 0.399 | 0.965 mPa·s and 0.964 mPa·s
x1 = 0.714 | 1.06 mPa·s

CC(C)CC(C)C + CCCCCCCCCCCCCCCC
101 kPa, x1 = 0.5
Conditions | viscosity [mPa·s]
298 K | 1.314
318 K | 0.9631

CC(C)c1cc(C(C)C)cc(C(C)C)c1 + CCCCCCCCCCCCCCCC
viscosity [mPa·s], 102 kPa
Conditions | x1 = 0.1209 | x1 = 0.1996 | x1 = 0.3001 | x1 = 0.3994 | x1 = 0.5003 | x1 = 0.6004 | x1 = 0.6998 | x1 = 0.7999 | x1 = 0.8993
293.15 K | 3.41 | 3.37 | 3.35 | 3.34 | 3.37 | 3.43 | 3.53 | 3.67 | 3.86
303.15 K | 2.7 | 2.67 | 2.64 | 2.63 | 2.64 | 2.66 | 2.71 | 2.79 | 2.9
313.15 K | 2.19 | 2.16 | 2.13 | 2.12 | 2.12 | 2.13 | 2.15 | 2.19 | 2.26
323.15 K | 1.81 | 1.79 | 1.76 | 1.75 | 1.74 | 1.74 | 1.75 | 1.77 | 1.81

CC(C)OCCO + CCCCCCCCCCO
viscosity [mPa·s], 101 kPa
Conditions | 298.15 K | 303.15 K | 308.15 K
x1 = 0.0501 | 11.21 | 9.204 | 7.728
x1 = 0.1066 | 10.53 | 8.634 | 7.235
x1 = 0.1507 | 10.01 | 8.194 | 6.853
x1 = 0.253 | 8.94 | 7.311 | 6.115
x1 = 0.3119 | 8.302 | 6.783 | 5.668
x1 = 0.3516 | 7.856 | 6.41 | 5.352
x1 = 0.4159 | 7.17 | 5.836 | 4.871
x1 = 0.5018 | 6.315 | 5.145 | 4.3
x1 = 0.6016 | 5.388 | 4.398 | 3.692
x1 = 0.7014 | 4.518 | 3.715 | 3.149
x1 = 0.8012 | 3.69 | 2.991 | 2.564
x1 = 0.854 | 3.267 | 2.661 | 2.308
x1 = 0.9003 | 2.873 | 2.385 | 2.097
x1 = 0.9507 | 2.516 | 2.166 | 1.948

CCCCOCCO + CCCCCCCCCCO
101 kPa
Conditions | viscosity [mPa·s]
303.15 K, x1 = 0.1024 | 8.155
308.15 K, x1 = 0.7009 | 3.195

CC(C)OCCO + CCCCCCCCO
viscosity [mPa·s], 101 kPa
Conditions | 298.15 K | 303.15 K | 308.15 K
x1 = 0.0517 | 7.288 | 6.066 | 5.217
x1 = 0.1016 | 6.902 | 5.729 | 4.938
x1 = 0.1531 | 6.517 | 5.401 | 4.671
x1 = 0.2013 | 6.178 | 5.106 | 4.415
x1 = 0.2524 | 5.832 | 4.817 | 4.162
x1 = 0.3033 | 5.49 | 4.523 | 3.906
x1 = 0.4 | 4.893 | 4.027 | 3.482
x1 = 0.5012 | 4.314 | 3.556 | 3.086
x1 = 0.618 | 3.706 | 3.07 | 2.691
x1 = 0.7017 | 3.325 | 2.776 | 2.459
x1 = 0.8102 | 2.849 | 2.418 | 2.155
x1 = 0.8492 | 2.721 | 2.322 | 2.091
x1 = 0.9046 | 2.477 | 2.157 | 1.986
x1 = 0.9472 | 2.36 | 2.064 | 1.911

CCCCCCCCN(CCCCCCCC)CCCCCCCC + CCCCCCCCO
Conditions | viscosity [mPa·s]
298 K, 101.3 kPa, x1 = 0.00811 | 7.341

CCCCOCCO + CCCCCCCCO
viscosity [mPa·s], 101 kPa
Conditions | 298.15 K | 303.15 K | 308.15 K
x1 = 0.6004 | 3.885 | – | 2.965
x1 = 0.8027 | – | 2.825 | 2.545

c1ccc2c(c1)CCCC2 + CCCCCCCCO
viscosity [mPa·s], 100 kPa
Conditions | x1 = 0.0993 | x1 = 0.1995 | x1 = 0.2994 | x1 = 0.3997 | x1 = 0.4996 | x1 = 0.5996 | x1 = 0.6996 | x1 = 0.7994 | x1 = 0.8994
293.15 K | 7.58 | 6.37 | 5.34 | 4.49 | 3.8 | 3.25 | 2.83 | 2.53 | 2.31
298.15 K | 6.37 | 5.38 | 4.55 | 3.86 | 3.3 | 2.85 | 2.51 | 2.25 | 2.09
303.15 K | 5.39 | 4.59 | 3.92 | 3.35 | 2.89 | 2.52 | 2.22 | 2.01 | 1.88
308.15 K | 4.61 | 3.95 | 3.39 | 2.92 | 2.54 | 2.23 | 1.99 | 1.81 | 1.7
313.15 K | 3.95 | 3.42 | 2.97 | 2.58 | 2.26 | 2 | 1.79 | 1.64 | 1.55
318.15 K | 3.42 | 2.99 | 2.61 | 2.29 | 2.02 | 1.8 | 1.63 | 1.51 | 1.43
323.15 K | 2.96 | 2.61 | 2.3 | 2.03 | 1.81 | 1.62 | 1.48 | 1.37 | 1.32

CCCCCCCCN(CCCCCCCC)CCCCCCCC + CCCCCCO
Conditions | viscosity [mPa·s]
298 K, 101.3 kPa, x1 = 0.00638 | 4.722
